In patent publication US11130756B2, “[1,2,4]Triazolo[4,3-A]pyridinyl substituted indole compounds” (BRISTOL-MYERS SQUIBB COMPANY, priority 2017, dated 2021) one finds IC50 data, which are given here for 11 compounds.

Common to all, as to type: cell-based
Experiment [1] concerns the target T1, human TLR9 (Homo sapiens, UniProt Q9NR96).
T1 construct: host or cells: HEK-Blue cells
T1 sequence (Q9NR96 26-1032): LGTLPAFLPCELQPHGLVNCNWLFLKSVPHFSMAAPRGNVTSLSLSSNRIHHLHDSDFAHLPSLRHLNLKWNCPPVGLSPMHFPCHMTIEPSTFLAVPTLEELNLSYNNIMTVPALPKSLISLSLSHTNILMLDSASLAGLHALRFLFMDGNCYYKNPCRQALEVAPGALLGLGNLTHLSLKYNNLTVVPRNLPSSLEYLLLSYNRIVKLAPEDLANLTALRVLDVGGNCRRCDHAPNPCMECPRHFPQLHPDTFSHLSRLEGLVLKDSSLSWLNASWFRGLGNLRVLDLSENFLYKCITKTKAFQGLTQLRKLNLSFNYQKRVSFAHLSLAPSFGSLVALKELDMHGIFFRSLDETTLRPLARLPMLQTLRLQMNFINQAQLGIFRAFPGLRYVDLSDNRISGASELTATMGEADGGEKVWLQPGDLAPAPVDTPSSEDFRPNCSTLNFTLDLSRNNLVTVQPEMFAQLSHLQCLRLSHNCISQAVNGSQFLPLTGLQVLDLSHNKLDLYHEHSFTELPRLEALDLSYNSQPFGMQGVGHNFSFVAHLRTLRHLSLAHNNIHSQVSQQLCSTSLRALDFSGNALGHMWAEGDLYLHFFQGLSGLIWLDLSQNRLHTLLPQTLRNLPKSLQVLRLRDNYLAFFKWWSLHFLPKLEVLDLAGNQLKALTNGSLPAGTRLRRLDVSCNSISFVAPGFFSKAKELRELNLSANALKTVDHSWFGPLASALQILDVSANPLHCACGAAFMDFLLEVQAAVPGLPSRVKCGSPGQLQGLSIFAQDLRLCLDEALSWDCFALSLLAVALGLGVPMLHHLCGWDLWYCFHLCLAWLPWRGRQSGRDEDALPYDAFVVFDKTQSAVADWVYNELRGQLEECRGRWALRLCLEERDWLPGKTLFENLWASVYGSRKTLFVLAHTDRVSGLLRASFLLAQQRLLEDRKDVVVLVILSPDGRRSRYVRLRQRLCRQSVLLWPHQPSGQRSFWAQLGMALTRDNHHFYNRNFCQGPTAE
Nature of the experiment: TLR9 inhibition reporter assay (HEK-Blue, SEAP). The following applies: HEK-Blue cells overexpressing human TLR9, ODN2006 5 nM, 22 hour incubation. As for the experimental part:
(§1) TLR7/8/9 Inhibition Reporter Assays
(§2) HEK-Blue™-cells (Invivogen) overexpressing human TLR7, TLR8 or TLR9 receptors were used for screening inhibitors of these receptors using an inducible SEAP (secreted embryonic alkaline phosphatase) reporter gene under the control of the IFN-β minimal promoter fused to five NF-κB and AP-1-binding sites. Briefly, cells are seeded into Greiner 384 well plates (15000 cells per well for TLR7, 20,000 for TLR8 and 25,000 for TLR9) and then treated with test compounds in DMSO to yield a final dose response concentration range of 0.05 nM-50 μM. After a 30 minute compound pre-treatment at room temperature, the cells are then stimulated with a TLR7 ligand (gardiquimod at a final concentration of 7.5 μM), TLR8 ligand (R848 at a final concentration of 15.9 μM) or TLR9 ligand (ODN2006 at a final concentration of 5 nM) to activate NF-κB and AP-1 which induce the production of SEAP. After a 22 hour incubation at 37° C., 5% CO2, SEAP levels are determined with the addition of HEK-Blue™ Detection reagent (Invivogen), a cell culture medium that allows for detection of SEAP, according to manufacturer's specifications. The percent inhibition is determined as the % reduction in the HEK-Blue signal present in wells treated with agonist plus DMSO alone compared to wells treated with a known inhibitor.
On the technique in general: A reporter such as luciferase makes a cellular process visible.

Experiment [2] deals with T2, human TLR8 (Homo sapiens, UniProt Q9NR97).
T2 construct: host or cells: HEK-Blue cells
T2 sequence (Q9NR97 27-1041): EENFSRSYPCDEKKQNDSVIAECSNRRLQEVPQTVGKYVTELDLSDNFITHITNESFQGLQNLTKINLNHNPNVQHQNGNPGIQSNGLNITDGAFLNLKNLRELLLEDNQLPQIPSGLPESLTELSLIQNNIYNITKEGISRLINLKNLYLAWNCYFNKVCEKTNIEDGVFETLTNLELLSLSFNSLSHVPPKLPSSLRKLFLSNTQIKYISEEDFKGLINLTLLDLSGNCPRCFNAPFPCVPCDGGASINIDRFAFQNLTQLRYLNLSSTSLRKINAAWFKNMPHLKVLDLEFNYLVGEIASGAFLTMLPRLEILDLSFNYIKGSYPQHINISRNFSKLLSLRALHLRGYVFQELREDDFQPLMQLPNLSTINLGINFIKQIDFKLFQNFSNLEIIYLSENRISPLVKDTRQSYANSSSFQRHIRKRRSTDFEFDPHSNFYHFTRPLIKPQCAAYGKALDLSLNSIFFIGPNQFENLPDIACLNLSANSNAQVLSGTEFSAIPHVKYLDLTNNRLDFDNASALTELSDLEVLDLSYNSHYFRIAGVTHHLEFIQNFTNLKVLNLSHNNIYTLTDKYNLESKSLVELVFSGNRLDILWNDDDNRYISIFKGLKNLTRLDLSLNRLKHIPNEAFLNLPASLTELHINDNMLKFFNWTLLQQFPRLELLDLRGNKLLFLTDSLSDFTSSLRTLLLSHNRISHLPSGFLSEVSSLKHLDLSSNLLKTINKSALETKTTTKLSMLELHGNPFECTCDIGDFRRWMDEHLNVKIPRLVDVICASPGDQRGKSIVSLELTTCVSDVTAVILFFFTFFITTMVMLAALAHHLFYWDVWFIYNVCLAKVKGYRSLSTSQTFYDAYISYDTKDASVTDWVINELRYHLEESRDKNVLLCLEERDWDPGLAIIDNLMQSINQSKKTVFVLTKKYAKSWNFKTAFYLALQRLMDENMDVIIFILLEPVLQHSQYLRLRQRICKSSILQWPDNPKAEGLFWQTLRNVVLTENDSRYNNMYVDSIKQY
Nature of the experiment: TLR8 inhibition reporter assay (HEK-Blue, SEAP). The following applies: HEK-Blue cells overexpressing human TLR8, R848 15.9 μM, 22 hour incubation. As for the experimental part:
as §1, §2

Experiment [3] addresses T3, human TLR7 (Homo sapiens, UniProt Q9NYK1).
T3 construct: host or cells: HEK-Blue cells
T3 sequence (Q9NYK1 27-1049): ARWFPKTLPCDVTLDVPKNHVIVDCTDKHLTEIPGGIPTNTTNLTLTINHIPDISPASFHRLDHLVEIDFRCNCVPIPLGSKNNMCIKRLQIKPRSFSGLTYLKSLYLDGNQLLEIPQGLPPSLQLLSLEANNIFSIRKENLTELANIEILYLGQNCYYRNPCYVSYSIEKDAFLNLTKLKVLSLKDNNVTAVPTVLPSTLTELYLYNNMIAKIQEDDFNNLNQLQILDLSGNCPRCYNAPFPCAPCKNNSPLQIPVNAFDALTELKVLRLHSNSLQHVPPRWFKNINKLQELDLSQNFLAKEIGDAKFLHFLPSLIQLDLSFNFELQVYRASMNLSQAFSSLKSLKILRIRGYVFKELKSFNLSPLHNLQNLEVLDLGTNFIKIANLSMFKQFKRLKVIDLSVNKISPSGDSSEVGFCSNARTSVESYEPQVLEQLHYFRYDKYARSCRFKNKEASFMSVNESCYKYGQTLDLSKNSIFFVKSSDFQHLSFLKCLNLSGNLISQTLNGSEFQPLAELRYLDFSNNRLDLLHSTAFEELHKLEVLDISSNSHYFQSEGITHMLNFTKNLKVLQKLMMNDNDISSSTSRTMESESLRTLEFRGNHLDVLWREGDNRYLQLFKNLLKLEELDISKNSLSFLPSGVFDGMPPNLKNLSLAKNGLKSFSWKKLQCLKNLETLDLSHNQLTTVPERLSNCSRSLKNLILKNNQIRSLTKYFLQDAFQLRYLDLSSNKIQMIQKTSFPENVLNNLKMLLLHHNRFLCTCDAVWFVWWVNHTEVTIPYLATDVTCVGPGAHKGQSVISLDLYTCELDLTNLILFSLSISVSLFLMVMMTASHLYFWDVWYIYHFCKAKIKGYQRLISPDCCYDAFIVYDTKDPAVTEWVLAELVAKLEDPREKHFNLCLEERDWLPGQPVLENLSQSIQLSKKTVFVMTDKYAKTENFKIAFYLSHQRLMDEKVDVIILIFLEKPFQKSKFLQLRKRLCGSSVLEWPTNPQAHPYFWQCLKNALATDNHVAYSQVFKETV
Nature of the experiment: TLR7 inhibition reporter assay (HEK-Blue, SEAP). The settings on record: HEK-Blue cells overexpressing human TLR7, gardiquimod 7.5 μM, 22 hour incubation. As for the experimental part: as §1, §2

As for `Cc1cc(-c2[nH]c3ccc(C4CCNCC4)cc3c2C(C)C)c(C)n2cnnc12` [Example 9, 6-(3-isopropyl-5-(piperidin-4-yl)-1H-indol-2-yl)-5,8-dimethyl-[1,2,4] triazolo[4,3-a]pyridine], the IC50 came to 746 nM in experiment [1], 11.5 nM in experiment [2] and 31 nM in experiment [3].

Turning to `Cc1c(-c2[nH]c3ccc(C4CCNCC4)cc3c2C(C)C)cn2cnnc2c1Cl` [Example 10, 8-chloro-6-(3-isopropyl-5-(piperidin-4-yl)-1H-indol-2-yl)-7-methyl-[1,2,4]triazolo[4,3-a]pyridine], the IC50 turned out to be 3120 nM in experiment [1], 107 nM in experiment [2] and 4.6 nM in experiment [3].

As to `COc1cc(-c2[nH]c3ccc(C4CCNCC4)cc3c2C(C)C)cn2cnnc12` [Example 11, 6-(3-isopropyl-5-(piperidin-4-yl)-1H-indol-2-yl)-8-methoxy-[1,2,4]triazolo[4,3-a]pyridine], the IC50 in experiment [1] was 563 nM; in experiment [2], 74 nM; in experiment [3] it was 6.2 nM.

For the compound `Cc1cc(-c2[nH]c3ccc(C4CCN(CC(=O)N(C)C)CC4)cc3c2C(C)C)cn2cnnc12` [Example 12, 2-(4-(3-isopropyl-2-(8-methyl-[1,2,4]triazolo[4,3-a]pyridin-6-yl)-1H-indol-5-yl)piperidin-1-yl)-N,N-dimethylacetamide], the results for the IC50 in experiment [1], in experiment [2] and in experiment [3] were 1900 nM, 6.9 nM and 1.5 nM, respectively.

Consider `CNC(=O)CN1CCC(c2ccc3[nH]c(-c4ccc5nncn5c4)c(C(C)C)c3c2)CC1` [Example 13, 2-(4-(2-([1,2,4]triazolo[4,3-a]pyridin-6-yl)-3-isopropyl-1H-indol-5-yl)piperidin-1-yl)-N-methylacetamide], for which the IC50 was 1110 nM in experiment [1], 98 nM in experiment [2] and 6.8 nM in experiment [3].

For the compound `CC(C)c1c(-c2ccc3nncn3c2)[nH]c2ccc(C3CCN(CC(=O)N(C)C)CC3)cc12` [Example 14, 2-(4-(2-([1,2,4]triazolo[4,3-a]pyridin-6-yl)-3-isopropyl-1H-indol-5-yl)piperidin-1-yl)-N,N-dimethylacetamide], the IC50 came to 222 nM in experiment [1], 308 nM in experiment [2] and 31.8 nM in experiment [3].

As for `CNC(=O)CN1CCC(c2ccc3[nH]c(-c4cn5cnnc5cc4C)c(C(C)C)c3c2)CC1` [Example 15, 2-(4-(3-isopropyl-2-(7-methyl-[1,2,4]triazolo[4,3-a]pyridin-6-yl)-1H-indol-5-yl)piperidin-1-yl)-N-methylacetamide], the figures for the IC50 in experiment [1], in experiment [2] and in experiment [3] were 1100 nM, 245 nM and 15 nM, respectively.

`CNC(=O)CN1CCC(c2ccc3[nH]c(-c4cc(C)c5nncn5c4)c(C(C)C)c3c2)CC1` [Example 16, 2-(4-(3-isopropyl-2-(8-methyl-[1,2,4]triazolo[4,3-a]pyridin-6-yl)-1H-indol-5-yl)piperidin-1-yl)-N-methylacetamide]: the IC50 was found to be 2520 nM in experiment [1], 10.2 nM in experiment [2] and 2 nM in experiment [3].

On to `CNC(=O)CN1CCC(c2ccc3[nH]c(-c4ccc5nnc(C)n5c4)c(C(C)C)c3c2)CC1` [Example 17, 2-(4-(3-isopropyl-2-(3-methyl-[1,2,4]triazolo[4,3-a]pyridin-6-yl)-1H-indol-5-yl)piperidin-1-yl)-N-methylacetamide], for which the IC50 is 2770 nM in experiment [1], 31.4 nM in experiment [2] and 44.7 nM in experiment [3].

In the case of `Cc1cc2nncn2cc1-c1[nH]c2ccc(C3CCN(CC(=O)N(C)C)CC3)cc2c1C(C)C` [Example 18, 2-(4-(3-isopropyl-2-(7-methyl-[1,2,4]triazolo[4,3-a]pyridin-6-yl)-1H-indol-5-yl)piperidin-1-yl)-N,N-dimethylacetamide], the IC50 in experiment [1] came out at 685 nM; in experiment [2] it was 715 nM; in experiment [3], 65.9 nM.

Consider `Cc1nnc2ccc(-c3[nH]c4ccc(C5CCN(CC(=O)N(C)C)CC5)cc4c3C(C)C)cn12` [Example 19, 2-(4-(3-isopropyl-2-(3-methyl-[1,2,4]triazolo[4,3-a]pyridin-6-yl)-1H-indol-5-yl)piperidin-1-yl)-N,N-dimethylacetamide], for which the IC50 worked out at 1660 nM in experiment [1], 29.6 nM in experiment [2] and 48.6 nM in experiment [3].

Broadly, the IC50 is the concentration that inhibits the measured activity by half. A high value points to lower potency.
